Data as given in the supplement of paper PMC13207355.
Where a name gives a salt, the structure may show the parent alone.

Columns and labels:
Conditions in all cases: exposure time: 72 h
FT3469 [1] = normal neural stem cell line; test: surviving fraction (nuclei count normalised to DMSO); higher = more cells surviving (less toxic)
E28 [2] = patient-derived glioblastoma stem cells of classical subtype; test: as above
E57 [3] = patient-derived glioblastoma stem cells of mesenchymal subtype; test: as above
E21 [4] = patient-derived glioblastoma stem cells of mesenchymal subtype; test: as above
E34 [5] = patient-derived glioblastoma stem cells of proneural subtype; test: as above
E31 [6] = patient-derived glioblastoma stem cells of proneural subtype; test: as above
E13 [7] = patient-derived glioblastoma stem cells of classical subtype; test: as above
FT3469 [8] = test: phenotypic distance (Euclidean, principal components) from DMSO controls (arbitrary units); higher = stronger morphological change
E28 [9] = test: as above
E57 [10] = test: as above
E21 [11] = test: as above
E34 [12] = test: as above
E31 [13] = test: as above
E13 [14] = test: as above
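For phenotypic distance (Euclidean, principal components) from DMSO controls in this document: cell Painting imaging in 384-well plates, CellProfiler features reduced to at least 20 principal components, Euclidean distance versus same-plate DMSO vehicle wells (0.1% v/v), median over six images per well.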
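For surviving fraction (nuclei count normalised to DMSO) in this document: nuclei counted by high-content imaging of Hoechst-stained cells in laminin-coated 384-well plates, relative to 0.1% DMSO vehicle wells, with staurosporine as cell-death control.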

NC1CCN(c2nc3c(cc2F)c(=O)c(C(=O)O)cn3-c2ccc(F)cc2F)C1 (stereo unspecified) [Tosufloxacin hydrochloride]
Conditions	phenotypic distance	surviving fraction
E13 [7], 4.1 nM	–	0.947
E13 [7], 12.3 nM	–	1.13
E13 [7], 37 nM	–	0.977
E13 [7], 111.1 nM	–	1.05
E13 [7], 333.3 nM	–	1.01
E13 [7], 1000 nM	–	1
E13 [7], 3000 nM	–	1.04
E13 [14], 4.1 nM	0.747	–
E13 [14], 12.3 nM	0.689	–
E13 [14], 37 nM	0.471	–
E13 [14], 111.1 nM	0.593	–
E13 [14], 333.3 nM	0.883	–
E13 [14], 1000 nM	0.502	–
E13 [14], 3000 nM	0.704	–
E21 [4], 4.1 nM	–	0.969
E21 [4], 12.3 nM	–	1.06
E21 [4], 37 nM	–	1.02
E21 [4], 111.1 nM	–	0.964
E21 [4], 333.3 nM	–	0.988
E21 [4], 1000 nM	–	0.989
E21 [4], 3000 nM	–	0.906
E21 [11], 4.1 nM	0.748	–
E21 [11], 12.3 nM	0.836	–
E21 [11], 37 nM	0.56	–
E21 [11], 111.1 nM	0.309	–
E21 [11], 333.3 nM	0.495	–
E21 [11], 1000 nM	0.751	–
E21 [11], 3000 nM	0.725	–
E28 [2], 4.1 nM	–	0.969
E28 [2], 12.3 nM	–	1.18
E28 [2], 37 nM	–	0.9
E28 [2], 111.1 nM	–	1.12
E28 [2], 333.3 nM	–	0.975
E28 [2], 1000 nM	–	1.01
E28 [2], 3000 nM	–	0.898
E28 [9], 4.1 nM	3.44	–
E28 [9], 12.3 nM	0.615	–
E28 [9], 37 nM	0.624	–
E28 [9], 111.1 nM	0.684	–
E28 [9], 333.3 nM	0.493	–
E28 [9], 1000 nM	0.455	–
E28 [9], 3000 nM	0.886	–
E31 [6], 4.1 nM	–	0.78
E31 [6], 12.3 nM	–	0.861
E31 [6], 37 nM	–	0.987
E31 [6], 111.1 nM	–	0.892
E31 [6], 333.3 nM	–	1.06
E31 [6], 1000 nM	–	0.836
E31 [6], 3000 nM	–	0.849
E31 [13], 4.1 nM	0.809	–
E31 [13], 12.3 nM	0.633	–
E31 [13], 37 nM	0.706	–
E31 [13], 111.1 nM	0.608	–
E31 [13], 333.3 nM	0.538	–
E31 [13], 1000 nM	0.815	–
E31 [13], 3000 nM	0.521	–
E34 [5], 4.1 nM	–	0.948
E34 [5], 12.3 nM	–	0.869
E34 [5], 37 nM	–	0.977
E34 [5], 111.1 nM	–	0.985
E34 [5], 333.3 nM	–	0.916
E34 [5], 1000 nM	–	1.03
E34 [5], 3000 nM	–	0.856
E34 [12], 4.1 nM	0.608	–
E34 [12], 12.3 nM	0.861	–
E34 [12], 37 nM	0.802	–
E34 [12], 111.1 nM	0.784	–
E34 [12], 333.3 nM	0.625	–
E34 [12], 1000 nM	0.557	–
E34 [12], 3000 nM	0.971	–
E57 [3], 4.1 nM	–	1.03
E57 [3], 12.3 nM	–	1.03
E57 [3], 37 nM	–	1
E57 [3], 111.1 nM	–	1.06
E57 [3], 333.3 nM	–	0.946
E57 [3], 1000 nM	–	1.09
E57 [3], 3000 nM	–	0.903
E57 [10], 4.1 nM	0.751	–
E57 [10], 12.3 nM	0.527	–
E57 [10], 37 nM	0.691	–
E57 [10], 111.1 nM	0.438	–
E57 [10], 333.3 nM	0.382	–
E57 [10], 1000 nM	0.743	–
E57 [10], 3000 nM	0.801	–
FT3469 [1], 4.1 nM	–	0.927
FT3469 [1], 12.3 nM	–	0.952
FT3469 [1], 37 nM	–	1.13
FT3469 [1], 111.1 nM	–	0.908
FT3469 [1], 333.3 nM	–	0.964
FT3469 [1], 1000 nM	–	0.96
FT3469 [1], 3000 nM	–	0.913
FT3469 [8], 4.1 nM	0.676	–
FT3469 [8], 12.3 nM	0.401	–
FT3469 [8], 37 nM	0.584	–
FT3469 [8], 111.1 nM	0.591	–
FT3469 [8], 333.3 nM	3.26	–
FT3469 [8], 1000 nM	0.468	–
FT3469 [8], 3000 nM	0.933	–

COc1ccc2[nH]c([S+]([O-])Cc3ncc(C)c(OC)c3C)nc2c1 (stereo unspecified) [Omeprazole]
Conditions	phenotypic distance	surviving fraction
E13 [7], 4.1 nM	–	1.05
E13 [7], 12.3 nM	–	0.938
E13 [7], 37 nM	–	0.905
E13 [7], 111.1 nM	–	1.03
E13 [7], 333.3 nM	–	0.869
E13 [7], 1000 nM	–	1
E13 [7], 3000 nM	–	0.867
E13 [14], 4.1 nM	1.1	–
E13 [14], 12.3 nM	0.755	–
E13 [14], 37 nM	3.51	–
E13 [14], 111.1 nM	0.567	–
E13 [14], 333.3 nM	0.654	–
E13 [14], 1000 nM	2.01	–
E13 [14], 3000 nM	2.52	–
E21 [4], 4.1 nM	–	0.918
E21 [4], 12.3 nM	–	0.928
E21 [4], 37 nM	–	1.02
E21 [4], 111.1 nM	–	0.96
E21 [4], 333.3 nM	–	0.928
E21 [4], 1000 nM	–	0.956
E21 [4], 3000 nM	–	0.943
E21 [11], 4.1 nM	0.405	–
E21 [11], 12.3 nM	0.66	–
E21 [11], 37 nM	0.543	–
E21 [11], 111.1 nM	0.648	–
E21 [11], 333.3 nM	0.808	–
E21 [11], 1000 nM	0.429	–
E21 [11], 3000 nM	0.519	–
E28 [2], 4.1 nM	–	0.929
E28 [2], 12.3 nM	–	1.07
E28 [2], 37 nM	–	1.08
E28 [2], 111.1 nM	–	1.01
E28 [2], 333.3 nM	–	0.973
E28 [2], 1000 nM	–	1.12
E28 [2], 3000 nM	–	1.07
E28 [9], 4.1 nM	0.44	–
E28 [9], 12.3 nM	0.413	–
E28 [9], 37 nM	0.667	–
E28 [9], 111.1 nM	0.895	–
E28 [9], 333.3 nM	0.743	–
E28 [9], 1000 nM	0.799	–
E28 [9], 3000 nM	0.723	–
E31 [6], 4.1 nM	–	0.952
E31 [6], 12.3 nM	–	1.04
E31 [6], 37 nM	–	1.03
E31 [6], 111.1 nM	–	0.985
E31 [6], 333.3 nM	–	1.06
E31 [6], 1000 nM	–	0.947
E31 [6], 3000 nM	–	0.777
E31 [13], 4.1 nM	0.572	–
E31 [13], 12.3 nM	0.759	–
E31 [13], 37 nM	0.563	–
E31 [13], 111.1 nM	0.747	–
E31 [13], 333.3 nM	0.837	–
E31 [13], 1000 nM	0.778	–
E31 [13], 3000 nM	0.726	–
E34 [5], 4.1 nM	–	1.02
E34 [5], 12.3 nM	–	1.19
E34 [5], 37 nM	–	1.12
E34 [5], 111.1 nM	–	0.869
E34 [5], 333.3 nM	–	0.988
E34 [5], 1000 nM	–	1.04
E34 [5], 3000 nM	–	0.988
E34 [12], 4.1 nM	1.17	–
E34 [12], 12.3 nM	0.774	–
E34 [12], 37 nM	1.1	–
E34 [12], 111.1 nM	0.579	–
E34 [12], 333.3 nM	1.09	–
E34 [12], 1000 nM	0.511	–
E34 [12], 3000 nM	0.693	–
E57 [3], 4.1 nM	–	1.08
E57 [3], 12.3 nM	–	0.963
E57 [3], 37 nM	–	0.934
E57 [3], 111.1 nM	–	0.99
E57 [3], 333.3 nM	–	0.91
E57 [3], 1000 nM	–	1.01
E57 [3], 3000 nM	–	0.926
E57 [10], 4.1 nM	0.551	–
E57 [10], 12.3 nM	0.53	–
E57 [10], 37 nM	0.343	–
E57 [10], 111.1 nM	0.729	–
E57 [10], 333.3 nM	0.596	–
E57 [10], 1000 nM	0.755	–
E57 [10], 3000 nM	1.11	–
FT3469 [1], 4.1 nM	–	0.946
FT3469 [1], 12.3 nM	–	1.04
FT3469 [1], 37 nM	–	1
FT3469 [1], 111.1 nM	–	0.823
FT3469 [1], 333.3 nM	–	1.04
FT3469 [1], 1000 nM	–	0.979
FT3469 [1], 3000 nM	–	0.976
FT3469 [8], 4.1 nM	0.923	–
FT3469 [8], 12.3 nM	0.698	–
FT3469 [8], 37 nM	0.685	–
FT3469 [8], 111.1 nM	1.14	–
FT3469 [8], 333.3 nM	0.549	–
FT3469 [8], 1000 nM	0.593	–
FT3469 [8], 3000 nM	0.772	–
